{"source": "patent US8314110B2", "about": "“Compounds for treating mental disorders, and preparation and uses thereof” (priority 2007, dated 2012)", "key": {"[1]": {"details": "oral administration; cited from earlier work"}, "[2]": {"assay": "Absolute bioavailability, beagle tests of the compound [formula (II)] and its prodrugs", "type": "in vivo", "details": "iv, dosage equimolar to the prodrug, compound [formula (II)] in blood", "experimental": "Measurement of the Absolute Bioavailability—Beagle Tests of the Compound [Formula (II)] and its Prodrugs, the Compounds 1, 2, 3, 5, 6, 7 and 8\nTwenty one beagles weighing about 10 kg were divided into 7 groups, and intragastrically administered the compounds 1, 2, 3, 5, 6, 7 and 8 at a dosage of 9.4 μmol/beagle, respectively. Blood samples were taken at the predetermined time points, and the concentrations of the active metabolite (the compound [formula (II)]) and prodrugs in blood were measured. In the meantime, three beagles weighing about 10 kg were intravenously administered with the compound [formula (II)] at a dosage equimolar to the prodrug, as the control group, and the concentrations of the compound [formula (II)] in blood were measured.\nThe prodrugs were immediately metabolized almost completely to form the active metabolite in beagle body, the compound [formula (II)] upon being administrated parenterally, and the concentrations of the original compounds were very low (see: FIG. 1C)."}, "[3]": {"assay": "Metabolism of the compounds to the active component (compound [formula (II)]) in liver cells", "details": "human liver cells S9, 1 mM NADPH, 37° C., 2 hours; metabolized to the compound [formula (II)]", "text": "After the precipitated proteins were removed by centrifugation, the obtained supernatant solution was adjusted to pH of 3 with concentrated potassium phosphate solution, and centrifuged again. The obtained supernatant was directly injected into HPLC for analysis."}, "[4]": {"assay": "Dissolution of the oral conventional tablets", "type": "physicochemical", "experimental": "Tablets were obtained by direct tabletting, and each tablet contained 6 mg of active ingredient (expressed in the compound [formula (II)])."}, "[5]": {"assay": "Dissolution of oral sustained-release capsules", "type": "physicochemical", "experimental": "Granules were obtained by using conventional fluidized bed.\nAfter the coating was dried, the coated granules were filled into hard gelatin capsules, each capsule contain 6 mg of the active ingredient (expressed in the compound [formula (II)]), and the coating degree was 6%. The capsules were subjected to dissolution tests according the method specified in the Pharmacopoeia of the People's Republic of China."}}, "data": [{"compound": "Cc1nc2n(c(=O)c1CCN1CCC(c3noc4cc(F)ccc34)CC1)CCCC2O", "note": "(stereo not drawn) [9-hydroxy risperidone, 3-{2-[4-(6-fluoro-benzo[d]isoxazol-3-yl)piperidin-1-yl]-ethyl}-9-hydroxy-2-methyl-6,7,8,9-tetrahydro-pyrido[1,2-α]pyrimidin-4-one]", "values": [{"measurement": "absolute bioavailability", "setting": "[1]", "result": 28, "unit": "%"}, {"measurement": "Cmax", "setting": "[2]; beagle, dog, 9.4 μmol/beagle", "result": 360, "unit": "ng/mL"}, {"measurement": "half-life", "setting": "[2]; beagle, dog, 9.4 μmol/beagle", "result": 2.51, "unit": "h"}, {"measurement": "AUC", "setting": "[2]", "result": 2422, "unit": "nghr/ml"}]}, {"compound": "Cc1nc2n(c(=O)c1CCN1CCC(c3noc4cc(F)ccc34)CC1)CCCC2OC(=O)c1ccccc1", "note": "(stereo not drawn) [Compound 1, 3-{2-[4-(6-fluoro-1,2-benzoisoxazol-3-yl)-1-piperidinyl]-ethyl}-2-methyl-4-oxo-6,7,8,9-tetrahydro-pyrido[1,2-α]pyrimidin-9-yl benzoate]", "values": [{"measurement": "Metabolic rate (%)", "setting": "[3]", "result": 89, "unit": "%"}, {"measurement": "Dissolution percentage of the active ingredient", "setting": "[4]; dissolution time 2 hours", "result": 35, "unit": "%"}, {"measurement": "Dissolution percentage of the active ingredient", "setting": "[4]; dissolution time 4 hours", "result": 67, "unit": "%"}, {"measurement": "Dissolution percentage of the active ingredient", "setting": "[4]; dissolution time 8 hours", "result": 92, "unit": "%"}, {"measurement": "Dissolution percentage of the active ingredient", "setting": "[5]; dissolution time 2 hours", "result": 8.9, "unit": "%"}, {"measurement": "Dissolution percentage of the active ingredient", "setting": "[5]; dissolution time 4 hours", "result": 26, "unit": "%"}, {"measurement": "Dissolution percentage of the active ingredient", "setting": "[5]; dissolution time 8 hours", "result": 60, "unit": "%"}, {"measurement": "Dissolution percentage of the active ingredient", "setting": "[5]; dissolution time 12 hours", "result": 76, "unit": "%"}, {"measurement": "Dissolution percentage of the active ingredient", "setting": "[5]; dissolution time 24 hours", "result": 94, "unit": "%"}]}, {"compound": "Cc1ccc(C(=O)OC2CCCn3c2nc(C)c(CCN2CCC(c4noc5cc(F)ccc45)CC2)c3=O)cc1", "note": "(stereo not drawn) [Compound 2, 3-{2-[4-(6-fluoro-1,2-benzoisoxazol-3-yl)-1-piperidinyl]ethyl}-2-methyl-4-oxo-6,7,8,9-tetrahydro-pyrido[1,2-α]pyrimidin-9-yl 4-methylbenzoate]", "values": [{"measurement": "Metabolic rate (%)", "setting": "[3]", "result": 78, "unit": "%"}]}, {"compound": "CCOC(=O)OC1CCCn2c1nc(C)c(CCN1CCC(c3noc4cc(F)ccc34)CC1)c2=O.Cl", "note": "(stereo not drawn) [Compound 5, 3-{2-[4-(6-fluoro-1,2-benzoisoxazol-3-yl)-1-piperidinyl]ethyl}-2-methyl-4-oxo-6,7,8,9-tetrahydro-pyrido[1,2-α]pyrimidin-9-yl ethyl carbonate hydrochloride]", "values": [{"measurement": "Metabolic rate (%)", "setting": "[3]", "result": 95, "unit": "%"}]}, {"compound": "Cc1nc2n(c(=O)c1CCN1CCC(c3noc4cc(F)ccc34)CC1)CCCC2OC(=O)OCC(C)C.Cl.Cl", "note": "(stereo not drawn) [Compound 6, 3-{2-[4-(6-fluoro-1,2-benzoisoxazol-3-yl)-1-piperidinyl]ethyl}-2-methyl-4-oxo-6,7,8,9-tetrahydro-pyrido[1,2-α]pyrimidin-9-yl isobutyl carbonate dihydrochloride]", "values": [{"measurement": "Metabolic rate (%)", "setting": "[3]", "result": 92, "unit": "%"}, {"measurement": "Dissolution percentage of the active ingredient", "setting": "[4]; dissolution time 2 hours", "result": 43, "unit": "%"}, {"measurement": "Dissolution percentage of the active ingredient", "setting": "[4]; dissolution time 4 hours", "result": 79, "unit": "%"}, {"measurement": "Dissolution percentage of the active ingredient", "setting": "[4]; dissolution time 8 hours", "result": 98, "unit": "%"}, {"measurement": "Dissolution percentage of the active ingredient", "setting": "[5]; dissolution time 2 hours", "result": 8.8, "unit": "%"}, {"measurement": "Dissolution percentage of the active ingredient", "setting": "[5]; dissolution time 4 hours", "result": 19, "unit": "%"}, {"measurement": "Dissolution percentage of the active ingredient", "setting": "[5]; dissolution time 8 hours", "result": 42, "unit": "%"}, {"measurement": "Dissolution percentage of the active ingredient", "setting": "[5]; dissolution time 12 hours", "result": 68, "unit": "%"}, {"measurement": "Dissolution percentage of the active ingredient", "setting": "[5]; dissolution time 24 hours", "result": 89, "unit": "%"}]}, {"compound": "CCCCCOC(=O)OC1CCCn2c1nc(C)c(CCN1CCC(c3noc4cc(F)ccc34)CC1)c2=O.Cl.Cl", "note": "(stereo not drawn) [Compound 7, 3-{2-[4-(6-fluoro-1,2-benzoisoxazol-3-yl)-1-piperidinyl]ethyl}-2-methyl-4-oxo-6,7,8,9-tetrahydro-pyrido[1,2-α]pyrimidin-9-yl n-pentyl carbonate dihydrochloride]", "values": [{"measurement": "Metabolic rate (%)", "setting": "[3]", "result": 93, "unit": "%"}, {"measurement": "Dissolution percentage of the active ingredient", "setting": "[4]; dissolution time 2 hours", "result": 45, "unit": "%"}, {"measurement": "Dissolution percentage of the active ingredient", "setting": "[4]; dissolution time 4 hours", "result": 76, "unit": "%"}, {"measurement": "Dissolution percentage of the active ingredient", "setting": "[4]; dissolution time 8 hours", "result": 93, "unit": "%"}, {"measurement": "Dissolution percentage of the active ingredient", "setting": "[5]; dissolution time 2 hours", "result": 5.3, "unit": "%"}, {"measurement": "Dissolution percentage of the active ingredient", "setting": "[5]; dissolution time 4 hours", "result": 22, "unit": "%"}, {"measurement": "Dissolution percentage of the active ingredient", "setting": "[5]; dissolution time 8 hours", "result": 41, "unit": "%"}, {"measurement": "Dissolution percentage of the active ingredient", "setting": "[5]; dissolution time 12 hours", "result": 59, "unit": "%"}, {"measurement": "Dissolution percentage of the active ingredient", "setting": "[5]; dissolution time 24 hours", "result": 82, "unit": "%"}]}, {"compound": "Cc1nc2n(c(=O)c1CCN1CCC(c3noc4cc(F)ccc34)CC1)CCCC2OC(=O)Oc1ccccc1.Cl", "note": "(stereo not drawn) [Compound 8, 3-{2-[4-(6-fluoro-1,2-benzoisoxazol-3-yl)-1-piperidinyl]ethyl}-2-methyl-4-oxo-6,7,8,9-tetrahydro-pyrido[1,2-α]pyrimidin-9-yl phenyl carbonate hydrochloride]", "values": [{"measurement": "Metabolic rate (%)", "setting": "[3]", "result": 94, "unit": "%"}]}, {"compound": "Cc1nc2n(c(=O)c1CCN1CCC(c3noc4cc(F)ccc34)CC1)CCCC2OC(=O)Oc1ccc([N+](=O)[O-])cc1.Cl", "note": "(stereo not drawn) [Compound 9, 3-{2-[4-(6-fluoro-1,2-benzoisoxazol-3-yl)-1-piperidinyl]ethyl}-2-methyl-4-oxo-6,7,8,9-tetrahydro-pyrido[1,2-α]pyrimidin-9-yl p-nitrophenyl carbonate hydrochloride]", "values": [{"measurement": "Metabolic rate (%)", "setting": "[3]", "result": 89, "unit": "%"}]}, {"compound": "Cc1nc2n(c(=O)c1CCN1CCC(c3noc4cc(F)ccc34)CC1)CCCC2", "note": "[Risperidone]", "values": [{"measurement": "absolute bioavailability", "setting": "[1]", "result": "at least 70%"}]}]}
